We go through 77 sequences from the supplement of paper PMC11208160.
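Note: IS621 recombinase and bridge RNA in Escherichia coli cells.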

A short description of this data set: recombinant barcode read abundance after kanamycin selection (control-corrected) (log10(CPM+1)); higher = more efficient recombination; sequences stand for … in AGTGCAGAGAAAATCGGCCAGTTTTCTCTGCCTGCAGTCCGCATGCCGT…AGATTTATGCAGCGGACTGCCTTTCTCCCAAAGTGATAAACCGGACAGTATCATGGACCGGTTTTCCCGGTAATCCGTATTTGCAAGGTTGGTTTCACT; site = the 11-nt target. The method in brief: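 For this pooled screen, each oligo contained a promoter, a target, a barcode and the J23119-driven first 104 bases of the bridge RNA. Gibson cloning placed it into a vector supplying the remaining 73 bp and a T7-inducible recombinase, and the pool was co-electroporated into E. coli with a donor plasmid. Recombination efficiency is derived from barcode counts per million at recombinant junctions after averaging and control correction, and is expressed on a log scale as log10(CPM+1), with selection on chloramphenicol/ampicillin/kanamycin plus 0.1 mM IPTG against a chloramphenicol/ampicillin LB agar control.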
“CGTACGACTTGGGTTCTAACCTGTTGCAT (site CGTCCGACTAT)”: the “recombinant barcode read abundance (log10)” value worked out at 0.451.

For “CGTACGACTTGGGTTCTAACCTGTTGCAT (site CGTGCGACTAT)”, the “recombinant barcode read abundance (log10)” value is 0.236.

As to “CGTACGACTTGGGTTCTAACCTGTTGCAT (site CGTTCGACTAT)”, the “recombinant barcode read abundance (log10)” value came to 0.0932.

As for “CGTAGGTCTTGGGTTCTAACCTGTTGCCT (site CGTAGGTCTAG)”, the “recombinant barcode read abundance (log10)” value worked out at 0.101.

As to “CGTAGGTCTTGGGTTCTAACCTGTTGCCT (site CTTAGCTCTAG)”, the “recombinant barcode read abundance (log10)” value was determined as 0.0284.

“CGTCCTCCTTGGGTTCTAACCTGTTGCAT (site CCGCCTCCTAT)”: the “recombinant barcode read abundance (log10)” value was 0.00736.

As for “CGTCCTCCTTGGGTTCTAACCTGTTGCAT (site CGTCCTCCTAT)”, the “recombinant barcode read abundance (log10)” value amounted to 0.089.

For the sequence “CGTCCTGCTTGGGTTCTAACCTGTTGCTT (site CGTCCTGCTAA)”, the “recombinant barcode read abundance (log10)” value was 0.527.

Consider “CGTCCTGCTTGGGTTCTAACCTGTTGCTT (site TAGGGGACTTT)”, for which the “recombinant barcode read abundance (log10)” value was found to be 0.0676.

Turning to “CGTCGCACTTGGGTTCTAACCTGTTGCCT (site CATCGCACTAG)”, the “recombinant barcode read abundance (log10)” value was 0.234.

As for “CGTCGCACTTGGGTTCTAACCTGTTGCCT (site CCTCGCACTAG)”, the “recombinant barcode read abundance (log10)” value is 0.029.

“CGTCGCACTTGGGTTCTAACCTGTTGCCT (site CGTCGCACTAG)”: the “recombinant barcode read abundance (log10)” value amounted to 0.0318.

With “CGTCGCACTTGGGTTCTAACCTGTTGCCT (site CTTCGCACTAG)”, the “recombinant barcode read abundance (log10)” value was determined as 0.164.

For “CGTCGTACTTGGGTTCTAACCTGTTGCCT (site CGACGTACTAG)”, the “recombinant barcode read abundance (log10)” value amounted to 0.504.

On to “CGTCGTACTTGGGTTCTAACCTGTTGCCT (site CGCCGTACTAG)”, for which the “recombinant barcode read abundance (log10)” value was 0.0657.

As to “CGTCGTACTTGGGTTCTAACCTGTTGCCT (site CGGCGTACTAG)”, the “recombinant barcode read abundance (log10)” value was 0.0235.

As for “CGTCGTACTTGGGTTCTAACCTGTTGCCT (site CGTCGTACTAG)”, the “recombinant barcode read abundance (log10)” value came to 0.136.

Regarding “CGTCTCCCTTGGGTTCTAACCTGTTGCCT (site CCTCTGCCTAG)”, the “recombinant barcode read abundance (log10)” value turned out to be 0.0171.

With “CGTCTCCCTTGGGTTCTAACCTGTTGCCT (site CGTCTCCCTAG)”, the “recombinant barcode read abundance (log10)” value was 0.451.

For “CGTGTAACTTGGGTTCTAACCTGTTGCCT (site CGTATATCTAG)”, the “recombinant barcode read abundance (log10)” value was 0.13.

As for “CGTGTAACTTGGGTTCTAACCTGTTGCCT (site CGTGTAACTAG)”, the “recombinant barcode read abundance (log10)” value stood at 0.332.

Take “CGTTCGACTTGGGTTCTAACCTGTTGCAT (site CGTACGACTAT)”: the “recombinant barcode read abundance (log10)” value is 0.131.

With “CGTTCGACTTGGGTTCTAACCTGTTGCAT (site CGTCCGACTAT)”, the “recombinant barcode read abundance (log10)” value came out at 0.0713.

On to “CGTTCGACTTGGGTTCTAACCTGTTGCAT (site CGTGCGACTAT)”, for which the “recombinant barcode read abundance (log10)” value was 0.174.

With “CGTTCGACTTGGGTTCTAACCTGTTGCAT (site CGTTCGACTAT)”, the “recombinant barcode read abundance (log10)” value is 0.133.

On to “CGTTCGACTTGGGTTCTAACCTGTTGCCT (site CGTTCAACTAG)”, for which the “recombinant barcode read abundance (log10)” value came to 0.0692.

Turning to “CGTTCGACTTGGGTTCTAACCTGTTGCCT (site CGTTCCACTAG)”, the “recombinant barcode read abundance (log10)” value was found to be 0.

As for “CGTTCGACTTGGGTTCTAACCTGTTGCCT (site CGTTCGACTAG)”, the “recombinant barcode read abundance (log10)” value amounted to 0.0748.

Regarding “CGTTCGACTTGGGTTCTAACCTGTTGCCT (site CGTTCTACTAG)”, the “recombinant barcode read abundance (log10)” value stood at 0.0286.

As for “CGTTCTCCTTGGGTTCTAACCTGTTGCCT (site AGTTCTCCTAG)”, the “recombinant barcode read abundance (log10)” value was 0.0567.

Regarding “CGTTCTCCTTGGGTTCTAACCTGTTGCCT (site CGTTCTCCTAG)”, the “recombinant barcode read abundance (log10)” value worked out at 0.0201.

With “CGTTCTCCTTGGGTTCTAACCTGTTGCCT (site GGTTCTCCTAG)”, the “recombinant barcode read abundance (log10)” value was found to be 0.0547.

On to “CGTTCTCCTTGGGTTCTAACCTGTTGCCT (site TGTTCTCCTAG)”, for which the “recombinant barcode read abundance (log10)” value is 0.121.

In the case of “CGTTGCCCTTGGGTTCTAACCTGTTGCCT (site CATTGCCCTAG)”, the “recombinant barcode read abundance (log10)” value worked out at 0.19.

On to “CGTTGCCCTTGGGTTCTAACCTGTTGCCT (site CCTTGCCCTAG)”, for which the “recombinant barcode read abundance (log10)” value was 0.0881.

In the case of “CGTTGCCCTTGGGTTCTAACCTGTTGCCT (site CGTTGCCCTAG)”, the “recombinant barcode read abundance (log10)” value came out at 0.166.

In the case of “CGTTGCCCTTGGGTTCTAACCTGTTGCCT (site CTTTGCCCTAG)”, the “recombinant barcode read abundance (log10)” value amounted to 0.468.

On to “CGTTGGTCTTGGGTTCTAACCTGTTGCGA (site CGTTGGTCTTC)”, for which the “recombinant barcode read abundance (log10)” value came to 0.759.

In the case of “CGTTGGTCTTGGGTTCTAACCTGTTGCGA (site TTGCATCCTCT)”, the “recombinant barcode read abundance (log10)” value was found to be 0.0731.

Regarding “CGTTTCCCTTGGGTTCTAACCTGTTGCAG (site CGTTTCCCTAC)”, the “recombinant barcode read abundance (log10)” value came out at 0.152.

As to “CGTTTCCCTTGGGTTCTAACCTGTTGCAG (site CGTTTCCCTCT)”, the “recombinant barcode read abundance (log10)” value is 0.427.

Take “CGTTTCCCTTGGGTTCTAACCTGTTGCGT (site CGTTTCCCTAC)”: the “recombinant barcode read abundance (log10)” value turned out to be 1.04.

Take “CGTTTCCCTTGGGTTCTAACCTGTTGCGT (site CGTTTCCCTCT)”: the “recombinant barcode read abundance (log10)” value was found to be 0.0161.

For the sequence “CTAAAACCTTGGGTTCTAACCTGTTGCCT (site ATAAAACCTAG)”, the “recombinant barcode read abundance (log10)” value amounted to 0.0167.

Take “CTAAAACCTTGGGTTCTAACCTGTTGCCT (site CTAAAACCTAG)”: the “recombinant barcode read abundance (log10)” value was determined as 1.

With “CTAAAACCTTGGGTTCTAACCTGTTGCCT (site GTAAAACCTAG)”, the “recombinant barcode read abundance (log10)” value is 0.0969.

In the case of “CTAAAACCTTGGGTTCTAACCTGTTGCCT (site TTAAAACCTAG)”, the “recombinant barcode read abundance (log10)” value was determined as 0.218.

Regarding “CTAAAGTCTTGGGTTCTAACCTGTTGCCA (site CTAAAGTCTTG)”, the “recombinant barcode read abundance (log10)” value is 0.399.

As to “CTAAAGTCTTGGGTTCTAACCTGTTGCCA (site GTAAAGTCTTG)”, the “recombinant barcode read abundance (log10)” value amounted to 0.0268.

Consider “CTAAATACTTGGGTTCTAACCTGTTGCTA (site CTAAATACTAG)”, for which the “recombinant barcode read abundance (log10)” value amounted to 0.835.

Turning to “CTAAATACTTGGGTTCTAACCTGTTGCTA (site CTAAATACTTA)”, the “recombinant barcode read abundance (log10)” value amounted to 0.126.

Turning to “CTAACCACTTGGGTTCTAACCTGTTGCCA (site CTAACCACTTG)”, the “recombinant barcode read abundance (log10)” value came to 0.329.

On to “CTAACCACTTGGGTTCTAACCTGTTGCCA (site CTAACTACTAG)”, for which the “recombinant barcode read abundance (log10)” value was found to be 0.0393.

Regarding “CTAACCTCTTGGGTTCTAACCTGTTGCTC (site CTAACCTCTAA)”, the “recombinant barcode read abundance (log10)” value was found to be 0.0754.

Turning to “CTAACCTCTTGGGTTCTAACCTGTTGCTC (site CTAACCTCTCA)”, the “recombinant barcode read abundance (log10)” value came to 0.0593.

On to “CTAACCTCTTGGGTTCTAACCTGTTGCTC (site CTAACCTCTGA)”, for which the “recombinant barcode read abundance (log10)” value was determined as 1.66.

For the sequence “CTAACCTCTTGGGTTCTAACCTGTTGCTC (site CTAACCTCTTA)”, the “recombinant barcode read abundance (log10)” value was found to be 0.0437.

With “CTAACCTCTTGGGTTCTAACCTGTTGCTG (site CTAACCTCTAA)”, the “recombinant barcode read abundance (log10)” value came out at 0.0311.

Take “CTAACCTCTTGGGTTCTAACCTGTTGCTG (site CTAACCTCTCA)”: the “recombinant barcode read abundance (log10)” value was 1.49.

Take “CTAACCTCTTGGGTTCTAACCTGTTGCTG (site CTAACCTCTGA)”: the “recombinant barcode read abundance (log10)” value is 0.0869.

Regarding “CTAACCTCTTGGGTTCTAACCTGTTGCTG (site CTAACCTCTTA)”, the “recombinant barcode read abundance (log10)” value was 0.0665.

As to “CTAACTACTTGGGTTCTAACCTGTTGCCT (site CTAACCACTTG)”, the “recombinant barcode read abundance (log10)” value was determined as 0.

Take “CTAACTACTTGGGTTCTAACCTGTTGCCT (site CTAACTACTAG)”: the “recombinant barcode read abundance (log10)” value is 0.26.

For “CTAACTACTTGGGTTCTAACCTGTTGCGT (site CTAACTACTAC)”, the “recombinant barcode read abundance (log10)” value was 0.181.

Turning to “CTAACTACTTGGGTTCTAACCTGTTGCGT (site GAGGTGCCTCA)”, the “recombinant barcode read abundance (log10)” value is 0.0974.

Regarding “CTAAGAACTTGGGTTCTAACCTGTTGCTT (site CTAAGAACTAA)”, the “recombinant barcode read abundance (log10)” value is 0.254.

Regarding “CTAAGAACTTGGGTTCTAACCTGTTGCTT (site CTAAGAACTAC)”, the “recombinant barcode read abundance (log10)” value worked out at 0.509.

Regarding “CTAAGAACTTGGGTTCTAACCTGTTGCTT (site CTAAGAACTAG)”, the “recombinant barcode read abundance (log10)” value worked out at 0.135.

Consider “CTAAGAACTTGGGTTCTAACCTGTTGCTT (site CTAAGAACTAT)”, for which the “recombinant barcode read abundance (log10)” value amounted to 0.086.

On to “CTAAGAGCTTGGGTTCTAACCTGTTGCAG (site CTAAGAGCTCG)”, for which the “recombinant barcode read abundance (log10)” value came to 0.123.

Regarding “CTAAGAGCTTGGGTTCTAACCTGTTGCAG (site CTAAGAGCTCT)”, the “recombinant barcode read abundance (log10)” value came to 1.98.

Consider “CTAAGCGCTTGGGTTCTAACCTGTTGCCT (site AGTCAGACTGT)”, for which the “recombinant barcode read abundance (log10)” value is 0.463.

For the sequence “CTAAGCGCTTGGGTTCTAACCTGTTGCCT (site CTAAGCGCTAG)”, the “recombinant barcode read abundance (log10)” value came out at 0.346.

Turning to “CTAAGCTCTTGGGTTCTAACCTGTTGCCT (site ATAAGCTCTAG)”, the “recombinant barcode read abundance (log10)” value amounted to 0.129.

As to “CTAAGCTCTTGGGTTCTAACCTGTTGCCT (site CTAAGCTCTAG)”, the “recombinant barcode read abundance (log10)” value is 0.756.

For “CTAAGCTCTTGGGTTCTAACCTGTTGCCT (site GTAAGCTCTAG)”, the “recombinant barcode read abundance (log10)” value came out at 0.0807.

Regarding “CTAAGCTCTTGGGTTCTAACCTGTTGCCT (site TTAAGCTCTAG)”, the “recombinant barcode read abundance (log10)” value came out at 0.201.
